From patent US20100197584A1, “USE OF CURCUMIN TO BLOCK BRAIN TUMOR FORMATION IN MICE” (Research Foundations of the City University of- New York, priority 2007, published 2010) come the findings set out here.

In assay [1] the test system is B16F10 (mouse melanoma) cells. As to the kind of experiment: Caspase-3/7 assay in B16F10 cells. In kind it is cell-based. Conditions: 20 μM and 50 μM, 48 h or 96 h (FIG. 1). As to the method:
Cells. B16F10 (mouse melanoma), GL261 (mouse glioma), HOG (human oligodendroglioma), A549 (human lung cancer), and […] (mouse neuroblastoma) cells were cultured separately in DMEM containing 10% (v/v) fetal bovine serum and 1% (v/v) penicillin-streptomycin (PS) and allowed to grow to 40% confluence in a 96-well plate. Curcumin Treatment. Two hours before drug treatment, the medium in each well was replaced with 200 μl Neurobasal medium supplemented with 2% (v/v) B27 and 1% (v/v) PS (Drug-treatment Medium). A stock solution (40 mM) of curcumin was prepared in sterile dimethyl sulfoxide (DMSO) (Example 1). Through serial dilution of each stock solution in Drug-treatment Medium, the following concentrations were obtained: 20 μM and 50 μM (for caspase 3/7 assays) or 25 μM and 50 μM (for MTT assays). Drug-treatment Medium in each well was aspirated, and a drug solution of each concentration or carrier-containing medium (control) was added to triplicate wells of cells (50 μl/well). […] Additionally, the background absorbance was determined from parallel wells containing only the Drug-treatment Medium plus a particular concentration of the drug (no cells). […] Fluorescence in each well was measured using the FLx 800 plate reader (Bio-Tek Instruments, Winooski, Vt.) set at 485/20 nm excitation and 528/20 nm emission wavelengths and the sensitivity of 70. […]

The subject of assay [2] is phospho-Akt. As to the kind of experiment: Western blot of B16F10 cells, phospho-Akt. Conditions: 50 μM (FIG. 9). The class given is cell-based, mouse. How it is done: (§1) B16F10 cells were cultured in 10-cm plates and then treated in duplicate with carrier or curcumin (50 μM). Following treatment for appropriate time periods, the cells were washed with PBS, lysed in RIPA buffer (PBS containing 1% Nonidet P40, 0.5% sodium deoxycholate, 0.1% SDS, 0.5 mM Na3VO4 plus freshly added PMSF and protease inhibitor cocktail; Boeringer-Roche), and then 20 μg of lysate protein (per lane) were analyzed by SDS-10% PAGE and Western blot analysis. Antibody concentrations used were: anti-phospho-NF-κB (1:1000) (Santa Cruz Biotechnology, Santa Cruz, Calif.), anti-phospho-Akt (1:5000) (Cell Signaling, CA), anti-cyclin D1 (1:1000) (Cell Signaling, CA), anti-BclXL (1:500) (Santa Cruz Biotechnology), anti-VEGF (1:500) (Santa Cruz Biotechnology), and anti-β-actin (1:1000) (Sigma, St. Louis, Mo.).

Assay [3] has as its system N18 (mouse neuroblastoma) cells. As to the kind of experiment: Cell viability assay using MTT, N18. The class given is cell-based. To be noted: 25 μM and 50 μM, 48 h or 96 h, versus control cells (FIG. 6c). As to the method:
Cells. B16F10 (mouse melanoma), GL261 (mouse glioma), HOG (human oligodendroglioma), A549 (human lung cancer), and N18 (mouse neuroblastoma) cells were cultured separately in DMEM containing 10% (v/v) fetal bovine serum and 1% (v/v) penicillin-streptomycin (PS) and allowed to grow to 40% confluence in a 96-well plate.
Curcumin Treatment. Two hours before drug treatment, the medium in each well was replaced with 200 μl Neurobasal medium supplemented with 2% (v/v) B27 and 1% (v/v) PS (Drug-treatment Medium). A stock solution (40 mM) of curcumin was prepared in sterile dimethyl sulfoxide (DMSO) (Example 1). Through serial dilution of each stock solution in Drug-treatment Medium, the following concentrations were obtained: 20 μM and 50 μM (for caspase 3/7 assays) or 25 μM and 50 μM (for MTT assays). […] Additionally, the background absorbance was determined from parallel wells containing only the Drug-treatment Medium plus a particular concentration of the drug (no cells).
Cell Viability Assay Using MTT (3-(4,5-Dimethylthiazolyl-2)-2,5-Diphenyltetrazolium Bromide). […] Absorbance was measured at 570 nm using a 96-well multi scanner auto-reader with the extraction buffer used as blank. For curcumin samples, the absorbance obtained from the corresponding curcumin plus medium samples was subtracted.

The subject of assay [4] is phospho-NF-κB. As to the kind of experiment: Western blot of B16F10 cells, phospho-NF-κB. The class given is cell-based, mouse. To be noted: 50 μM (FIG. 9). How it is done: as §1
Assay [5] deals with Erk. As to the kind of experiment: Western blot of B16F10 cells, Erk. In kind it is cell-based, mouse. Conditions: 50 μM (FIG. 9). How it is done:
as §1

Take `COc1cc(/C=C/C(=O)CC(=O)/C=C/c2ccc(O)c(OC)c2)ccc1O` [curcumin]: the caspase-3/7 activity result in assay [1] is “increased”. Besides, in assay [2], the “phospho-Akt (Western blot)” value is “suppression”. For the same compound, in assay [3], the “cell viability (MTT)” value is reported as “dramatic decrease”. The “phospho-NF-κB (Western blot)” value in assay [4] is “suppression”. The “Erk (Western blot)” value in assay [5] is “suppression”.
